Values joined by “and” are separate entries in the source; they are usually repeats but may differ in a detail not shown here. Equal values may be shown once.
Each compound was assayed on P. falciparum 3D7 growth, pLDH absorbance (assay: P. falciparum 3D7 growth inhibition, dose response, strain 3D7 (AID 2305)).

| Compound | IC50 |
| --- | --- |
| c1cc(-c2ccc(CNCc3ccc(-c4csnn4)cc3)cc2)cc(-c2nc3ccccc3[nH]2)c1 | 160 nM |
| COc1ccc2nccc([C@@H](O)CN3CCC(NC(=O)Cc4cc5ccccc5s4)CC3)c2c1 | 910 nM |
| Fc1cccc(Nc2nc(NCc3ccc(OCc4ccccc4)cc3)nc(Nc3cccc(F)c3)n2)c1 | 1180 nM |
| CC(C)(C)c1ccc(CN2CCCCC(NC(=O)c3cc(-c4cccc(F)c4)cs3)C2)cc1 (stereo unspecified) | 780 nM |
| OCc1ccc(-c2cncc(Nc3cccc(Cl)c3)c2)cc1 | 70 nM |
| CCCCN(CCCC)Cc1cc(N(C)c2ccc([N+](=O)[O-])cn2)ccc1O | 540 nM |
| CCCc1c(C(=O)OCC)c2cc(O)ccc2n1-c1ccc(OC)cc1 | 140 nM |
| Nc1ccc(-c2ccc3ccnc(N)c3c2)cn1 | 350 nM |
| COc1ccc(-c2nc(NC(=O)Cc3ccc4c(c3)OCCO4)sc2C)cc1 | 240 nM |
| O=C(/C=C/c1ccc(Cl)c(Cl)c1)NCCCCCN1CCC(NC(=O)c2cccc(Cl)c2)CC1 | 690 nM |
| CC(C)[C@@H]1c2ccc(O)cc2C[C@H]2C(=O)N(C3CCCCC3)C(=O)N21 | 880 nM |
| C[C@@H]1C[C@@H]([C@H](O)CC2CC(=O)NC(=O)C2)C(=O)[C@@H](C)C1 | 530 nM |
| CC(=O)NCCNc1nccc(N2CCc3ncnc(Nc4ccc(OCc5ccccn5)c(Cl)c4)c3C2)n1 | 820 nM |
| CN1CCN(CC(=O)Nc2ccc(-c3cccc(-c4nc5ccc(C(F)(F)F)cc5[nH]4)c3)cc2)CC1 | 400 nM |
| COc1ccc(-c2csc3ncnc(Cl)c23)cc1 | 780 nM |
| Cc1ccc(C2CCN(CCCCNC(=O)c3ccc(NC(=O)c4ccc(Cl)cc4)cc3)CC2)c(OCC2CC2)c1 | 890 nM |
| CN1CCCC(CN2CCN(Cc3ccc(-c4ccc(-c5nc6ccc(F)cc6[nH]5)s4)cc3)CC2)C1 (stereo unspecified) | 130 nM |
| CCOC(=O)c1cnc2cc(N3CCCC3)c(Cl)cc2c1OCC | 110 nM |
| CC(C)CCCC(C)(C)NC[C@@H](O)[C@H](Cc1ccccc1)NC(=O)c1cccc(CCC2CC2)c1 | 800 nM |
| CCCc1cc([C@@H](O)[C@@H]2C[C@@H]3CCN2C[C@@H]3CC)c2ccccc2n1 | 430 nM |
| Nc1c2ccccc2nc2cc([N+](=O)[O-])ccc12 | 870 nM |
| COc1ccc(Br)cc1/C=C/C(=O)Nc1cccc(C2CCN(C)CC2)c1 | 520 nM |
| Cc1noc(C)c1CN1CCCN(c2ccc3c(c2)CCN(Cc2ccc(-c4ncc[nH]4)cc2)CC3)CC1 | 860 nM |
| Nc1nccc2ccc(-c3ccc(OCc4ccccc4)cc3)cc12 | 220 nM |

| Compound | IC50 |
| --- | --- |
| COc1cc(-c2nc(-c3ccc4c(c3)CCC4=NO)c(-c3ccncc3)[nH]2)ccc1OCCN1CCN(C)CC1 | 760 nM |
| Cc1ccc2[nH]cc(C3CCN(CC4CCC(NC(=O)/C=C/c5ccc(Cl)c(Cl)c5)CC4)CC3)c2c1 (stereo unspecified) | 840 nM and 550 nM |
| COc1ccc2c(NN=Cc3ccccc3Cl)cc(C)nc2c1 | 370 nM |
| CC(C)N1CCN(c2ccc(OCCCCN3CCN(c4cccc(Cl)c4Cl)CC3)cc2Cl)CC1 | 1040 nM |
| Cc1ccc(NC(=O)c2ccc3ncccc3c2)cc1OC1CCN(Cc2ccco2)C1 (stereo unspecified) | 1250 nM |
| Cc1ccc(Oc2cnn(C)c(=O)c2Nc2cccc(C(=O)NCCc3ccccn3)c2)c(C)c1 | 490 nM |
| Cc1cc(-c2ccc(CNCc3ccc(F)cc3)cc2)ccc1S(=O)(=O)NCCN1CCCC1 | 720 nM |
| CC(C)(C)c1ccc(CN2CCC(NC(=O)c3cc(-c4cccc(C(F)(F)F)c4)cs3)C2)cc1 (stereo unspecified) | 810 nM |
| Cc1cccc2[nH]c(-c3ccc(-c4ccc(NC(=O)C(C)CN(C)C)cc4)cc3)nc12 (stereo unspecified) | 680 nM |
| CCCNC[C@@H](O)[C@H](Cc1ccccc1)NC(=O)c1cc(NCC)cc(N2CCCC2=O)c1 | 760 nM |
| O=c1[nH]c2c(c(O)c1[N+](=O)[O-])CCC2 | 1050 nM |
| CC(C)NCc1ccc(-c2cccc(-c3nc4ccc(F)cc4[nH]3)c2)cc1 | 410 nM |
| COc1c(C2CCN(CCCCNC(=O)c3ccc(-c4ccc(Cl)cc4)c(OCC(N)=O)c3)CC2)ccc2c1CCCC2 | 1010 nM |
| Cc1cc(=O)c(-c2ccc(Oc3ccc(OC(F)(F)F)cc3)cc2)c(C)[nH]1 | 360 nM |
| CCN(CC)c1ccc2nc(N)nc(N)c2c1 | 70 nM |
| COc1ccc(CNC2CCN(C)CC2)cc1-c1ccc(S(=O)(=O)NCCc2ccccn2)s1 | 620 nM |
| CCOc1ccccc1C1CCN(CCCCNC(=O)c2ccc(NC(=O)c3ccc(Cl)cc3)cc2)CC1 | 850 nM |
| Nc1nccc2ccc(OC3CCCCC3)cc12 | 600 nM |
| COc1cc(CCN=C(N)/C=C/c2ccc(Cl)cc2)ccc1Cl | 240 nM |
| CCCCCC(C)C(C)c1cc(O)c2c3c(c(=O)oc2c1)CN(Cc1ccccc1)CC3 (stereo unspecified) | 600 nM |
| Cc1cccc2[nH]c(-c3ccc(-c4ccc(CNCc5ccccc5)cc4)cc3)nc12 | 510 nM |
| CCNc1cc(C(=O)N[C@@H](Cc2ccccc2)[C@H](O)CN[C@H]2C[C@@H]3CC[C@H]2C3)cc(N2CCCCS2(=O)=O)c1 | 240 nM |
| COCC(=O)Nc1nc2ccccc2[nH]1 | 300 nM |
| O=[N+]([O-])c1ccc2ncnc(Nc3ccc(F)c(Cl)c3)c2c1 | 710 nM |

| Compound | IC50 |
| --- | --- |
| COc1ccc(-c2nc(NC(=O)Cc3cccc(OC)c3)sc2C)cc1 | 240 nM |
| NC1=NC(c2ccccc2)(c2ccccn2)C(=O)N1CCCc1ccccc1 (stereo unspecified) | 1040 nM |
| Cc1cccc2[nH]c(-c3cccc(-c4ccc(NC(=O)c5cnn6cccnc56)cc4)c3)nc12 | 210 nM |
| Cc1ccc2nc(C)cc(NN=Cc3ccccc3Cl)c2c1 | 750 nM |
| NC(=NCCCc1ccccc1)c1cccc(C(N)=NCCCc2ccccc2)n1 | 1380 nM |
| O=C(NC1CC1)c1cnc(N2CCC(OCc3ccccc3)CC2)c(Cl)c1 | 1400 nM |
| CCC(C)Oc1ccc2nc(N)nc(N)c2c1Cl (stereo unspecified) | 180 nM |
| Cc1cccc2c(C(=O)NC3CCN(Cc4ccccc4)CC3)cc(-c3cccnc3)nc12 | 1380 nM |
| CCCCOC(=O)NCCCC[C@H](NC(=O)OC(C)(C)C)C(=O)N[C@H](C(=O)OC(c1ccccc1)c1ccccc1)[C@H]1O[C@@H](n2ccc(=O)[nH]c2=O)[C@@H]2OC(C)(C)O[C@@H]21 | 1090 nM |
| O=C(/C=C/c1ccc(Cl)c(Cl)c1)NCCCCCN1CCC(NC(=O)Nc2cc(Cl)ccc2Cl)CC1 | 430 nM |
| O=C(NC1CCN(Cc2ccc3c(c2)OCCO3)CC1)c1ccc(-c2cccc(C(F)(F)F)c2)s1 | 1830 nM |
| Cn1cnc(-c2ccc3c(c2)CCN(CCC2CCC(NC(=O)/C=C/c4ccc(F)cc4)CC2)CC3)c1 (stereo unspecified) | 900 nM |
| O=C(Nc1ccc2c(c1)OCO2)NC1CCN(c2ccnc(NCc3ccc(F)cc3)n2)CC1 | 940 nM |
| CN1CCC(N2CCN(c3ccc4c(=O)nc(CCc5cccc(F)c5F)n(CC(=O)N(C)Cc5ccc(-c6ccc(C(F)(F)F)cc6)cc5)c4n3)CC2)CC1 | 720 nM |
| CCCCSc1c(CNCCCCCCNCc2ccc3ccccc3c2SCCCC)ccc2ccccc12 | 1000 nM |
| O=[N+]([O-])c1ccc(C=NNc2nc(Nc3ccccc3)nc(Nc3ccccc3)n2)o1 | 840 nM |
| O=C1NC(=O)C(c2ccc(Cl)cc2)=C1Nc1cccc(S(=O)(=O)C(F)(F)F)c1 | 740 nM |
| CN1CCCC(CN2CCN(Cc3cccc(-c4csc(-c5nc6ccccc6[nH]5)c4)c3)CC2)C1 (stereo unspecified) | 410 nM |
| O=C(Nc1nc(-c2ccccn2)cc2ccccc12)c1cccc(Cl)c1 | 750 nM |
| Cc1ccc(Nc2nc(C)cc(NCc3ccc(-n4ccnc4)cc3)n2)cc1 | 1010 nM |
| CCCCn1c(=N)c(C(=O)NCc2cccnc2)cc2c(=O)n3cccc(C)c3nc21 | 740 nM |
| CCCOc1cccc(C(=O)N[C@@H](Cc2ccccc2)[C@H](O)CNCc2cccc(OC)c2)c1 | 740 nM |
| COc1ccc2nccc(C(=O)NC3CCC(CCN4CCc5cc(C#N)ccc5C4)CC3)c2c1 (stereo unspecified) | 1160 nM |

From PubChem BioAssay AID2305 (GlaxoSmithKline (GSK), 2010)
